Results on one compound are retold here after US20210186905A1, “ENHANCING T-CELL FUNCTION AND TREATING A T-CELL DYSFUNCTIONAL DISORDER WITH A COMBINATION OF AN LSD INHIBITOR AND A PD-1 BINDING ANTAGONIST” (EpiAxis Therapeutic Pty Ltd, priority 2017, published 2021).

Counter-ions that a name gives are not always drawn.

Experiment [1] deals with F4/80+ macrophages (CD38, CD206, LSD1p). As to the kind of experiment: Immunofluorescence assay of TME macrophage populations (M1/M2 profiles). The experiment is classed as in vivo, mouse. As to the method:
FIG. 4 is a graphical representation showing that dual epigenetic-immunotherapy re-educates and re-programs innate macrophage repertoire. A. Immunofluorescence microscopy was performed on F4/80+MØ cells fixed and probed with a M1 panel consisting of anti-CD38 and ? odies and DAPI. […] B. Immunofluorescence microscopy was performed on F4/80+MØ cells fixed and probed with a M2 panel consisting of anti-CD206 and anti LSD1p antibodies and DAPI.
The effect of these treatment modalities was also investigated on TME macrophage populations by immunofluorescence assay (IFA). In particular, the M1 (CD38 expression) and M2 profiles (CD206 expression) were examined, along with LSD1p expression.
(§1) A total of 2×10^5 cells were injected per mouse into mammary gland in 50 μL of phosphate buffered saline (PBS). Treatments were started on mice after 15 days post-inoculation of 4T1 cells. […] Tumors were measured using calipers and the tumor volumes (mm3) were calculated using the formula (length×width2)/2. ? arvested cells from primary tumors where then cytospun ? -treated with poly-1-lysine and fixed then stored in PBS for IFA Microscopy Analysis. […] Digital images were analysed using ImageJ software (ImageJ, NIH, Bethesda, Md., USA) to determine the either the Total Nuclear Fluorescent Intensity (TNFI), the Total Cytoplasmic Fluorescent Intensity (TCFI) or total Fluorescent Intensity (TFI).

Another experiment has as its system CD4+/CD8+ T-cells. Kind of experiment: Flow cytometry of T-cell populations (naive, effector and central memory) in 4T1 mice. The format is in vivo, mouse. The protocol: (§2) FIG. 5 is a graphical representation showing that dual epigenetic-immunotherapy re-educates and re-programs the T-cell repertoire. A. Cells stimulated with PMA/ionomycin for 4 hours in the presence of Brefeldin A. Cells were surfaced stained with CD45, CD3, CD4, CD8, CD44, CD62L (for naïve, effector and central memory), CD25 and FoxP3 (for Tregs) and analyzed via Flow cytometry. A Mann-Whitney non-parametric t-test was used to compare control vs other groups (*p<0.05, n=2-5). […] Representative images for each dataset are shown. TNFI values for EOMES, TBET and Ki67 measured using Image) to select the nucleus minus background. Graphs represent the % change of expression relative to control group for CD8^+ T-cells. (n>20 individual cells, Group A=Control, Group C: PD1 (10 mg/kg), Group D: Phenelzine (40 mg/kg), Group F: PD1+Phenelzine). C. Cells stimulated with PMA/ionomycin for 4 hours in the presence of Brefeldin A. Cell were surfaced stained with CD45, CD3, CD4, CD8 and intracellular staining of IFN-γ, IL-2 and TNF-α in the presence of Brefeldin A and analyzed via flow cytometry. A Mann-Whitney non-parametric t-test was used to compare control vs other groups (*p<0.05, **p<0.008; n=2-5). […] Representative images for each dataset are shown. TNFI values for TNFα and IFNγ measured using ImageJ to select the nucleus minus background. […]
On the technique in general: Flow cytometry measures light scatter and fluorescence of single cells or particles in a stream.

For another experiment, the system named is EOMES, TBET and Ki67. As to the kind of experiment: Immunofluorescence of T-cell exhaustion signature in CD8+ T-cells isolated from TME. The experiment is classed as in vivo, mouse. The note with it: % change relative to control. The protocol: FIG. 5 is a graphical representation showing that dual epigenetic-immunotherapy re-educates and re-programs the T-cell repertoire. A. Cells stimulated with PMA/ionomycin for 4 hours in the presence of Brefeldin A. Cells were surfaced stained with CD45, CD3, CD4, CD8, CD44, CD62L (for naïve, effector and central memory), CD25 and FoxP3 (for Tregs) and analyzed via Flow cytometry. A Mann-Whitney non-parametric t-test was used to compare control vs other groups (*p<0.05, n=2-5). […] Representative images for each dataset are shown. TNFI values for EOMES, TBET and Ki67 measured using Image) to select the nucleus minus background. Graphs represent the % change of expression relative to control group for CD8^+ T-cells. (n>20 individual cells, Group A=Control, Group C: PD1 (10 mg/kg), Group D: Phenelzine (40 mg/kg), Group F: PD1+Phenelzine). C. Cells stimulated with PMA/ionomycin for 4 hours in the presence of Brefeldin A. Cell were surfaced stained with CD45, CD3, CD4, CD8 and intracellular staining of IFN-γ, IL-2 and TNF-α in the presence of Brefeldin A and analyzed via flow cytometry. A Mann-Whitney non-parametric t-test was used to compare control vs other groups (*p<0.05, **p<0.008; n=2-5). […] Representative images for each dataset are shown. TNFI values for TNFα and IFNγ measured using ImageJ to select the nucleus minus background. Graphs represent the % change of expression relative to control group for CD8^+ T-cells. […]
as §1, with “(PBS).” for “(PBS). Treatments were started on mice after 15 days post-inoculation of 4T1 cells.”

The subject of experiment [2] is T-cell activation and exhaustion genes. Kind of experiment: Nanostring transcript analysis of CD8+ T-cells from 4T1 metastatic mouse model. The experiment is classed as in vivo. As to the method:
as §2

Take `NNCCc1ccccc1` (racemic) [phenelzine sulfate, (±)-2-phenylethylhydrazine]: in experiment [1], the “M1 phenotype (CD38 expression and LSD1p inhibition)” value is given as “most strongly enhanced”; the “tumor associated M2 profile (CD206 and LSD1p expression)” value is “re-programmed and inhibited”. For the same compound, the “CD8+ central memory and effector memory populations” value in the experiment on CD4+/CD8+ T-cells is listed as “enhance”. In the experiment on EOMES, TBET and Ki67, the EOMES expression result is on record as “strongly inhibit”, the Ki67 expression result was “more strongly” and the TBET expression result was “more strongly”. The “exhaustive signature genes such as CTLA4 and LAG3” value in experiment [2] was “inhibited”.
